From BindingDB's records for doi:10.1016/j.bioorg.2016.04.005 (Comsats Institute of Information Technology, 2016) come the findings set out here.

This assay addresses Urease subunit alpha (Sporosarcina pasteurii, UniProt P41020). Put plainly: Urease Inhibition Assay. Particulars: 30 °C. The protocol: Reaction mixtures comprising one unit of urease enzyme (B. pasteurii) solution and 55 uL of buffers containing 100 mMol urea were incubated with 5 uL of test compounds (1 mMol concentration) at 30° C for 15 min in 96-well plates. Urease activity was determined by measuring ammonia production using the indophenol'smethod. Momentarily, 45 uL each of phenol reagent and 70 uL of alkali reagent were added to each well. The increasing absorbance at 630 nm was measured after 50 min, using a micro-plate reader (Molecular Devices, USA). All reactions were performed in triplicate in a final volume of 200 uL. The results (change in absorbance per min.) were processed by using the Soft-Max Pro s4.5.Software (Molecular Devices, USA).

Urease subunit alpha, sequence (P41020 as listed by the source): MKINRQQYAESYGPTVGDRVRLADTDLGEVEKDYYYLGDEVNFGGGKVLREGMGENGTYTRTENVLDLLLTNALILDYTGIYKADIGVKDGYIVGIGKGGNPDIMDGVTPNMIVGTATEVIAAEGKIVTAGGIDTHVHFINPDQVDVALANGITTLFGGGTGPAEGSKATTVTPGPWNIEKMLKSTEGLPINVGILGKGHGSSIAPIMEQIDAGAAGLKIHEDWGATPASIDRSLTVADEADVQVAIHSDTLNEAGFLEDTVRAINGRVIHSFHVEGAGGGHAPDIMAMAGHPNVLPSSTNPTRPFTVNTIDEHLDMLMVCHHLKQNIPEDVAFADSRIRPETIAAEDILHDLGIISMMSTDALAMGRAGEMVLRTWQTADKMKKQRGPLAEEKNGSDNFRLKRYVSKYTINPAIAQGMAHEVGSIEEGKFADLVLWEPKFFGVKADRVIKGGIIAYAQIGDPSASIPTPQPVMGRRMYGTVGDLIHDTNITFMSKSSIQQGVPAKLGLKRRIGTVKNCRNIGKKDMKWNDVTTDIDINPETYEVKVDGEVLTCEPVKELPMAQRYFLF

By IC50 is commonly meant the concentration that inhibits the measured activity by half. A low value points to inhibition by little substance. With `O=c1oc2ccccc2c(O)c1S(=O)(=O)c1cccc2ccccc12` [3-(1-Naphthosulfonyl)-(4-hydroxycoumarin) (16)], the IC50 is 69.5 µM. The value for `COc1cc(C(=O)c2c(O)c3ccccc3oc2=O)cc(OC)c1OC` [3-(3,4,5-Trimethoxybenzoyl)-(4-hydroxycoumarin) (9)] was 11.3 µM.

Consider `CS(=O)(=O)c1c(O)c2ccccc2oc1=O` [3-(Methanesulfonoyl)-(4-hydroxycoumarin) (11)], for which the IC50 came to 29.5 µM. The value for `CCCCCCCCCC(=O)c1c(O)c2ccccc2oc1=O` [3-Decanoyl-(4-hydroxycoumarin) (5)] was 13 µM; that for `CCCCCCCCCCCC(=O)c1c(O)c2ccccc2oc1=O` [3-Lauroyl-(4-hydroxycoumarin) (6)] was 17.1 µM; that for `CCCCCCCCC(=O)c1c(O)c2ccccc2oc1=O` [3-Nonanoyl-(4-hydroxycoumarin) (4)] was 30.9 µM.

With `NC(N)=S` [thiocarbamide], the IC50 worked out at 21 µM.
